According to ChEMBL document CHEMBL1681662, “A new structural alert for benzimidazoles: 2,6-dimethylphenyl substituents increase mutagenic potential and time-dependent CYP3A4 inhibition risk” (Bioorg Med Chem Lett, 2011):
The source made the active and inactive calls. The rule behind the calls is not given here.

Tests used:
Salmonella typhimurium [1] = test: Mutagenic activity in Salmonella Typhimurium TA100 assessed as fold increase in maximum revertant at 1000 ug by Ames test; type: functional
Salmonella typhimurium [2] = test: Mutagenic activity in Salmonella Typhimurium TA100 assessed as fold increase in maximum revertant at 1000 ug by Ames test in presence of S9 fraction; type: functional
Salmonella typhimurium [3] = test: Mutagenic activity in Salmonella Typhimurium TA98 assessed as fold increase in maximum revertant at 300 ug by Ames test in presence of S9 fraction; type: functional, Salmonella enterica subsp. enterica serovar Typhimurium
Salmonella typhimurium [4] = test: Mutagenic activity in Salmonella Typhimurium TA98 assessed as fold increase in maximum revertant at 100 ug by Ames test; type: functional, Salmonella enterica subsp. enterica serovar Typhimurium
Cytochrome P450 3A4 [5] = biological target: T1, Cytochrome P450 3A4 (Homo sapiens, UniProt P08684); test: Inhibition of CYP3A4 in human liver microsome measured after 30 mins preincubation in presence of NADPH; type: ADME, microsomes
Cytochrome P450 3A4 [6] = biological target: T1, Cytochrome P450 3A4; test: Inhibition of CYP3A4; type: ADME
[7] = Salmonella enterica subsp. enterica serovar Typhimurium

T1 sequence (P08684 whole entry): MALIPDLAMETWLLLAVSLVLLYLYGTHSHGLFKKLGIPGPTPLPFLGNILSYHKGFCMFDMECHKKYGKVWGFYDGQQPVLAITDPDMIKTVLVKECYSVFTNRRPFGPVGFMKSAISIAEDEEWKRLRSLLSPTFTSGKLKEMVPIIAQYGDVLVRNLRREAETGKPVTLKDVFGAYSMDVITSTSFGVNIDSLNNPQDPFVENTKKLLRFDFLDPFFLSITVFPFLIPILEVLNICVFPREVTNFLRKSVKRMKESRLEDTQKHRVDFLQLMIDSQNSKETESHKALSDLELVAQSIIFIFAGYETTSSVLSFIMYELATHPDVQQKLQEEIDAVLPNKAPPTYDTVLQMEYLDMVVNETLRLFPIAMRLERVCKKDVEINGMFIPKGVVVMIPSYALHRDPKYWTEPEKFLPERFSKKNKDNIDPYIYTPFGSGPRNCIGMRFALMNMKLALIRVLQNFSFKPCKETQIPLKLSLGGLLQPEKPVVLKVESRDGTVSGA

O=C(Nc1ccc2ccccc2n1)c1ccc2nc(-c3c(Cl)cc(CCCP(=O)(O)O)cc3Cl)[nH]c2c1
Activity (Salmonella typhimurium [1]; [7]): inactive
Activity (Salmonella typhimurium [2]; [7]): inactive

Cc1cc(CCC(=O)O)cc(C)c1-c1nc2ccc(C(=O)Nc3ccc4ccccc4n3)cc2[nH]1
fold change (FC) (Salmonella typhimurium [3]): 14.57
fold change (FC) (Salmonella typhimurium [4]): 5.86

Cc1cc(CCCP(=O)(O)O)cc(C)c1-c1nc2ccc(C(=O)Nc3ccc4ccccc4n3)cc2[nH]1
fold change (FC) (Salmonella typhimurium [1]): 2.48
fold change (FC) (Salmonella typhimurium [2]): 2

Cc1cccc(C)c1-c1nc2ccc(C(=O)Nc3ccc4ccccc4n3)cc2[nH]1
IC50 (Cytochrome P450 3A4 [5]): 2.7 µM
IC50 (Cytochrome P450 3A4 [6]): 7.3 µM

O=C(O)CCc1cc(Cl)c(-c2nc3ccc(C(=O)Nc4ccc5ccccc5n4)cc3[nH]2)c(Cl)c1
Activity (Salmonella typhimurium [3]; [7]): inactive
Activity (Salmonella typhimurium [4]; [7]): inactive

Cc1ccccc1-c1nc2ccc(C(=O)Nc3ccc4ccccc4n3)cc2[nH]1
IC50 (Cytochrome P450 3A4 [5]): > 50 µM
IC50 (Cytochrome P450 3A4 [6]): > 50 µM
